Experimental data: patent US20120141478A1, “COMPOSITIONS AND METHODS FOR DELIVERING ANTI-ACTIVATED RAS ANTIBODIES” (Cellectis S.A., priority 2006, published 2012)

Legend:
[1] = tested on: human lung carcinoma expressing K-RAS; conditions: cited from earlier work
K-RASmt HCT 116 cells = assay: In vitro anti-proliferative activity (WST-1) on HCT 116; assay type: cell-based, human
Procedure: Cells were incubated for 120 hours with the antibody alone (Y13259; 700 nM), or the DPV3-Y13259 conjugate (700 nM), with DPV3-maleimide as internal controls (DPV3-mal; 700 nM). Non-relevant IgG1 anti-peroxydase immunoglobulins (IgG PO; 700 nM) and an inhibitor of RAS farnesyltransferase (FTI-276; 100 nM) were used as internal controls. Results are expressed as mean±SEM of three independent experiments performed in duplicate. *p<0.05 vs not treated cells.
HCT 116 and HT-29 were seeded at 8×10^3 cells/well (96-well plates) in medium+0.5% and 10% FCS (Foetal Calf Serum) respectively. The day after, cells were treated with increasing concentrations of tested compounds in complete medium (+10% FCS) and cells were counted overtime at 24 h, 48 h, 72 h and 120 h using the WST-1 method, described hereafter. The medium was removed and 100 μl of fresh medium without FCS supplemented with 10% WST-1 solution was added on cells for 2 h at 37° C., 5% CO2. Measurement of A450 nm−A690 nm (blank=0 cells) was performed to determine cell number.
CPP-Y13259 conjugates were tested in a cell proliferation assay on mutated RAS-expressing and wild-type RAS expressing cell lines (HCT 116 and HT-29, respectively). FTI-276, a farnesyltransferase inhibitor that inhibits RAS-mediated cell proliferation constituted a positive control. […]

[2] = target: mutated Ki-RAS of HCT 116 cells (human) (UniProt P01116); assay: cell-based or functional assay

efficient concentration, HCT 116 cell proliferation (WST-1) [2] [nM]	Molecule	effect on tumor growth in nude mice [1]	duration of the effect on HCT 116 cell proliferation (K-RASmt HCT 116 cells; 120 hours = maximum time tested)	effect on HCT 116 cell proliferation (K-RASmt HCT 116 cells; FTI-276 100 nM, positive control)
	CSCC[C@H](NC(=O)c1ccc(NC[C@@H](N)CS)cc1-c1ccccc1)C(=O)O [FTI-276]	block the growth of a human lung carcinoma expressing K-RAS in nude mice	at least 120 hours	inhibited HCT 116 cell proliferation
85 to 700	DPV3-Y13259 conjugate (antibody)			
